{
  "source": "paper PMC10383801",
  "about": "(Pharmaceutics, 2023)",
  "key": {"[1]": {"settings": "stated without reference; cited from earlier work", "excerpt": "HIP of peptides with surfactants is an efficient tool to enhance its lipophilic characteristics. […] These six positively charged amino acids (two Histidine, one Arginine, one Lysine and two N-terminal amino aci ..."}, "diabetic rats": {"test_system": "diabetic rats", "assay": "Antidiabetic effect study in diabetic rats", "assay_type": "in vivo", "settings": "streptozotocin-induced diabetic rats; for reduction in blood glucose level (in words): 5 rats per group, glucometer, 0-8 h", "protocol": "Glucose lowering effect of orally administered optimized SMEDDS was monitored in diabetic rats. Study was performed with the approval Pharmacy Ethical Committee, Bahauddin Zakariya University, Multan, Pakistan (249/PEC/2023 dated 25 March 2023). Diabetes was introduced in rats weighing 220–240 g by injecting streptozotocin solution at the dose of (45 mg/kg body weight) intraperitoneally. Fasting blood glucose (FBG) level of all the rats was measured after 3 days using glucometer (AccuChek Performa, Hoffman-La Roche, Basel, Switzerland). Rats with FBG level 200–250 mg/dL were considered diabetic and were included in the study. All rats were fasted over night before experiment and start of treatment. Diabetic rats were divided randomly in 5 groups with 5 rats per group. […] Blood samples were collected at regular time intervals, i.e., 0, 0.5, 1, 1.5, 2, 3, 4, 6, and 8 h and measured for hypoglycemic effects using glucometer."}, "Solubility in n-octanol": {"assay": "Solubility in n-octanol", "assay_type": "physicochemical", "settings": "insulin measured spectrophotometrically at 270 nm, sentence also cites refs 14, 15", "protocol": "After 4 h of magnetic stirring, the mixture was centrifuged for 30 min at 5000 rpm."}},
  "data": [
    {"substance": "Human insulin", "values": [
      {"measurement": "isoelectric point", "setting": "[1]", "value": "5.35–5.45"},
      {"measurement": "reduction in blood glucose level (in words)", "setting": "diabetic rats; oral, 50 IU/kg insulin equivalent", "value": "negligible anti-diabetic effect"},
      {"measurement": "reduction in blood glucose level (in words)", "setting": "diabetic rats; subcutaneous, 5 IU/kg", "value": "Maximum reduction in blood glucose level"},
      {"measurement": "duration of glucose lowering effect", "setting": "diabetic rats; subcutaneous, 5 IU/kg, entire duration of the experiment", "value": "up to 8 h"},
      {"measurement": "solubility in n-octanol", "setting": "Solubility in n-octanol", "value": "~17", "unit": "µg/mL"}
    ]}
  ]
}
